Measurements published in patent publication US20130040935A1, “CYCLIC KETO-ENOLS FOR THERAPY” (BAYER INTELLECTUAL PROPERTY GMBH, priority 2010, published 2013).
Where two headings read alike, the source gives them in different places.

Biological target: T1, human ACC1 (acetyl-coenzyme A carboxylase alpha transcript variant 1) (Homo sapiens, UniProt Q13085)
T1 construct: FLAG (C); made in house; host or cells: baculovirus-infected insect cells (Hi5)
Test: Human ACC1 enzyme assay, Assay B1 (ADP-Glo)
Assay type: biochemical

[1] = Assay B1, read-out: ACC 1 (=B1) IC50
[2] = Assay B1, ADP-Glo, read-out: ACC 1 (=B1) IC50

Protocol: Essentially, the enzyme activity is measured by quantifying the adenosine diphosphate (ADP) formed as a byproduct of the enzyme reactions using the ADP-Glo™ detection system from Promega. In this test, initially the adenosine triphosphate (ATP) not consumed in the enzyme reaction is converted quantitatively with an adenylate cyclase (“ADP-GLO reagent”) into cAMP, the adenylate cyclase is then stopped and (“kinase detection reagent”) the ADP formed is subsequently converted into ATP, which is converted in a luciferase-based reaction into a glow luminescence signal.
The concentration of the hACC1 was adapted to the respective activity of the enzyme and adjusted such that the assay operated in the linear range. […] The amount of light emitted was taken as a measure for the amount of ADP formed and thus for the enzyme activity of the hACC1.

Row | IC50 [1] | Structure (SMILES) | IC50 | also measured
1 | 1940 nM | Cc1ccc(-c2ccc(Cl)cc2)cc1C1=C(O)CN(CC(C)C)C1=O [1-27, 3-(4′-chloro-4-methylbiphenyl-3-yl)-4-hydroxy-1-(2-methylpropyl)-1,5-dihydro-2H-pyrrol-2-one] |  | 
2 |  | O=C1C(c2cc(-c3ccc(F)cc3F)ccc2Cl)C(=O)N2CCOCCN12 [8-11, 8-(4-chloro-2′,4′-difluorobiphenyl-3-yl)tetrahydro-7H-pyrazolo[1,2-d][1,4,5]oxadiazepine-7,9(8H)-dione] | 1360 nM | 
3 | 1450 nM | O=C1C(c2cc(-c3ccc(Cl)cc3)ccc2Cl)C(=O)N2C3CCC(C3)N12 (stereo not drawn) [8-17, 2-(4,4′-dichlorobiphenyl-3-yl)tetrahydro-1H-5,8-methanopyrazolo[1,2-a]pyridazine-1,3(2H)-dione] |  | 
4 |  | O=C1OC2(CCCCC2)C(O)=C1c1cc(-c2ccc(F)c(F)c2)ccc1Cl [2-25, 3-(4-chloro-3′,4′-difluorobiphenyl-3-yl)-4-hydroxy-1-oxaspiro[4.5]dec-3-en-2-one] |  | IC50 [2]: 1200 nM
5 |  | CO[C@H]1CC[C@]2(CC1)NC(=O)C(c1cc(-c3ccc(F)cc3)ccc1Cl)=C2O [1-44, (5s,8s)-3-(4-chloro-4′-fluorobiphenyl-3-yl)-4-hydroxy-8-methoxy-1-azaspiro[4.5]dec-3-en-2-one] | 1700 nM | 
6 |  | Cc1ccc(-c2ccc(F)c(Cl)c2)cc1C1=C(O)C2(CCCC2)OC1=O [2-23, 3-(3′-chloro-4′-fluoro-4-methylbiphenyl-3-yl)-4-hydroxy-1-oxaspiro[4.4]non-3-en-2-one] |  | IC50 [2]: 2090 nM
7 | 3920 nM | O=C1C(c2cc(-c3ccc(F)c(Cl)c3)ccc2Cl)C(=O)N2CCCCN12 [8-4, 2-(3′,4-dichloro-4′-fluorobiphenyl-3-yl)tetrahydro-1H-pyrazolo[1,2-a]pyridazine-1,3(2H)-dione] |  | 
8 | 661 nM | Cc1ccc(-c2ccc(Cl)cc2)cc1-c1c(O)c2ccccc2[nH]c1=O [9-5, 3-(4′-chloro-4-methylbiphenyl-3-yl)-4-hydroxyquinolin-2(1H)-one] |  | 
9 |  | Cc1ccc(-c2ccc(F)cc2)cc1C1=C(O)C2(CCCCC2)OC1=O [2-21, 3-(4′-fluoro-4-methylbiphenyl-3-yl)-4-hydroxy-1-oxaspiro[4.5]dec-3-en-2-one] | 874 nM | 
10 | 850 nM | Cc1ccc(-c2ccc(F)c(F)c2)cc1C1=C(O)C2(CCOCC2)NC1=O [1-37, 3-(3′,4′-difluoro-4-methylbiphenyl-3-yl)-4-hydroxy-8-oxa-1-azaspiro[4.5]dec-3-en-2-one] |  | 
11 |  | COC1CCCC2(C1)OC(=O)C(c1cc(-c3ccc(Cl)cc3)ccc1Cl)=C2O (stereo not drawn) [2-13, 3-(4,4′-dichlorobiphenyl-3-yl)-4-hydroxy-7-methoxy-1-oxaspiro[4.5]dec-3-en-2-one] | 1020 nM | 
12 |  | Cc1ccc(-c2ccc(Cl)cc2)cc1C1=C(O)C2(CCCOC2)OC1=O (stereo not drawn) [2-9, 3-(4′-chloro-4-methylbiphenyl-3-yl)-4-hydroxy-1,7-dioxaspiro[4.5]dec-3-en-2-one] | 2220 nM | 
13 |  | Cc1ccc(-c2ccc(Cl)cc2)cc1C1=C(O)C(C(C)(C)C)OC1=O (stereo not drawn) [2-35, 5-tert-butyl-3-(4′-chloro-4-methylbiphenyl-3-yl)-4-hydroxyfuran-2(5H)-one] |  | IC50 [2]: 1190 nM
14 | 1980 nM | Cc1ccc(-c2ccc(Cl)c(C3=C(O)C4(CCOCC4)NC3=O)c2)cc1F [1-39, 3-(4-chloro-3′-fluoro-4′-methylbiphenyl-3-yl)-4-hydroxy-8-oxa-1-azaspiro[4.5]dec-3-en-2-one] |  | 
15 |  | Cc1ccc(-c2ccc(Cl)cc2)cc1C1=C(O)CN(C)C1=O [1-16, 3-(4′-chloro-4-methylbiphenyl-3-yl)-4-hydroxy-1-methyl-1,5-dihydro-2H-pyrrol-2-one] | 241 nM | 
16 | 1360 nM | CC1(F)CN2C(=O)C(c3cc(-c4ccc(Cl)cc4)ccc3Cl)C(=O)N2C1 [8-13, 2-(4,4′-dichlorobiphenyl-3-yl)-6-fluoro-6-methyldihydro-1H,5H-pyrazolo[1,2-a]pyrazole-1,3(2H)-dione] |  | 
17 |  | Cc1ccc(-c2ccc(Cl)cc2)cc1C1=C(O)C2(CC2)OC1=O [2-8, 6-(4′-chloro-4-methylbiphenyl-3-yl)-7-hydroxy-4-oxaspiro[2.4]hept-6-en-5-one] |  | IC50 [2]: 1990 nM
18 |  | O=C1C(c2cc(-c3ccc(Cl)cc3Cl)ccc2Cl)C(=O)N2CCOCCN12 [8-9, 8-(2′,4,4′-trichlorobiphenyl-3-yl)tetrahydro-7H-pyrazolo[1,2-d][1,4,5]oxadiazepine-7,9(8H)-dione] | 682 nM | 
19 |  | Cc1ccc(-c2ccc(Cl)cc2)cc1C1=C(O)C(C)(C)C(C)(C)OC1=O [10-2, 3-(4′-chloro-4-methylbiphenyl-3-yl)-4-hydroxy-5,5,6,6-tetramethyl-5,6-dihydro-2H-pyran-2-one] | 760 nM | 
20 | 747 nM | O=C1NC2(CCOCC2)C(O)=C1c1cc(-c2cc(F)c(F)c(F)c2)ccc1Cl [1-38, 3-(4-chloro-3′,4′,5′-trifluorobiphenyl-3-yl)-4-hydroxy-8-oxa-1-azaspiro[4.5]dec-3-en-2-one] |  | 
21 |  | Cc1ccc(-c2ccc(F)c(F)c2)cc1C1=C(O)C2(CCCC2)OC1=O [2-22, 3-(3′,4′-difluoro-4-methylbiphenyl-3-yl)-4-hydroxy-1-oxaspiro[4.4]non-3-en-2-one] |  | IC50 [2]: 2230 nM

Row | IC50 [1] | Structure (SMILES) | IC50 | also measured
22 | 2940 nM | Cc1ccc(-c2ccc(F)cc2)cc1-c1c(O)c2ccc(F)cc2[nH]c1=O [9-9, 7 fluoro-3-(4′-fluoro-4-methylbiphenyl-3-yl)-4-hydroxyquinolin-2(1H)-one] |  | 
23 |  | Cc1ccc(-c2ccc(Cl)cc2)cc1C1=C(O)C2(CCOCC2)OC1=O [2-37, 3-(4′-chloro-4-methylbiphenyl-3-yl)-4-hydroxy-1,8-dioxaspiro[4.5]dec-3-en-2-one] | 1050 nM | 
24 | 6940 nM | Cc1ccc(-c2ccc(F)cc2F)cc1C1C(=O)N2CCOCCN2C1=O [8-5, 8-(2′,4′-difluoro-4-methylbiphenyl-3-yl)tetrahydro-7H-pyrazolo[1,2-d][1,4,5]oxadiazepine-7,9(8H)-dione] |  | 
25 | 3190 nM | COCCC1(C)NC(=O)C(c2cc(-c3ccc(Cl)cc3)ccc2C)=C1O (stereo not drawn) [1-47, 3-(4′-chloro-4-methylbiphenyl-3-yl)-4-hydroxy-5-(2-methoxyethyl)-5-methyl-1,5-dihydro-2H-pyrrol-2-one] |  | 
26 | 1410 nM | Cc1ccc(-c2ccc(C(F)(F)F)cc2)cc1-c1c(O)c2ccc(F)cc2[nH]c1=O [9-10] |  | 
27 | 1050 nM | Cc1ccc(-c2ccc(Cl)cc2)cc1C1C(=O)N2CCCCN2C1=O [8-3, 2-(4′-chloro-4-methylbiphenyl-3-yl)tetrahydro-1H-pyrazolo[1,2-a]pyridazine-1,3(2H)-dione] |  | 
28 | 5600 nM | CN1C(=O)C(c2cc(-c3ccc(Cl)cc3)ccc2Cl)C(=O)N1C [8-15, 4-(4,4′-dichlorobiphenyl-3-yl)-1,2-dimethyl-1H-pyrazole-3,5(2H,4H)-dione] |  | 
29 |  | Cc1ccc(-c2ccc(Cl)cc2)cc1C1=C(O)CC(C)CC1=O (stereo not drawn) [7-1, 2-(4′-chloro-4-methylbiphenyl-3-yl)-3-hydroxy-5-methylcyclohex-2-en-1-one] | 932 nM | 
30 | 1280 nM | Cc1ccc(-c2ccc(Cl)cc2)cc1C1C(=O)N2CCOCCN2C1=O [8-6, 8-(4′-chloro-4-methylbiphenyl-3-yl)tetrahydro-7H-pyrazolo[1,2-d][1,4,5]oxadiazepine-7,9(8H)-dione] |  | 
31 | 783 nM | Cc1ccc(-c2ccc(Cl)cc2)cc1C1C(=O)N2CC(C)(F)CN2C1=O [8-12, 2-(4′-chloro-4-methylbiphenyl-3-yl)-6-fluoro-6-methyldihydro-1H,5H-pyrazolo[1,2-a]pyrazole-1,3(2H)-dione] |  | 
32 | 174 nM | Cc1ccc(-c2ccc(Cl)cc2)cc1-c1c(O)c2ccc(F)cc2[nH]c1=O [9-8, 3-(4′-chloro-4-methylbiphenyl-3-yl)-7-fluoro-4-hydroxyquinolin-2(1H)-one] |  | 
33 |  | CC1(C)OC(=O)C(c2cc(-c3ccc(Cl)cc3)ccc2Cl)=C(O)C1(C)C [10-1, 3-(4,4′-dichlorobiphenyl-3-yl)-4-hydroxy-5,5,6,6-tetramethyl-5,6-dihydro-2H-pyran-2-one] | 1070 nM | 
34 |  | COC1CCC2(CC1)NC(=O)C(c1cc(-c3cc(F)ccc3F)ccc1C)=C2O (stereo not drawn) [1-80, 3-(2′,5′-difluoro-4-methylbiphenyl-3-yl)-4-hydroxy-8-methoxy-1-azaspiro[4.5]dec-3-en-2-one] | 2180 nM | 
35 | 522 nM | Cc1ccc(-c2ccc(C)c(C3=C(O)C4(CCOCC4)NC3=O)c2)cc1 [1-15, 3-(4,4′-dimethylbiphenyl-3-yl)-4-hydroxy-8-oxa-1-azaspiro[4.5]dec-3-en-2-one] |  | 
36 |  | CCOC1CCC2(CC1)NC(=O)C(c1cc(-c3cccc(Cl)c3)ccc1C)=C2O (stereo not drawn) [1-79, 3-(3′-chloro-4-methylbiphenyl-3-yl)-8-ethoxy-4-hydroxy-1-azaspiro[4.5]dec-3-en-2-one] | 2320 nM | 
37 |  | O=C1C(c2cc(-c3ccc(Cl)c(Cl)c3)ccc2Cl)C(=O)N2CCOCCN12 [8-10, 8-(3′,4,4′-trichlorobiphenyl-3-yl)tetrahydro-7H-pyrazolo[1,2-d][1,4,5]oxadiazepine-7,9(8H)-dione] | 2350 nM | 
38 | 7460 nM | Cc1ccc(-c2ccc(Cl)cc2)cc1C1C(=O)N(C)N(C)C1=O [8-14, 4-(4′-chloro-4-methylbiphenyl-3-yl)-1,2-dimethyl-1H-pyrazole-3,5(2H,4H)-dione] |  | 
39 |  | Cc1ccc(-c2cc(F)c(F)c(F)c2)cc1C1=C(O)C2(CCOCC2)NC1=O [1-36, 4-hydroxy-3-(3′,4′,5′-trifluoro-4-methylbiphenyl-3-yl)-8-oxa-1-azaspiro[4.5]dec-3-en-2-one] | 1500 nM | 
40 |  | Cc1ccc(-c2ccc(F)cc2)c(C)c1C1C(=O)N2CCOCCN2C1=O [8-7, 8-(4′-fluoro-2,4-dimethylbiphenyl-3-yl)tetrahydro-7H-pyrazolo[1,2-d][1,4,5]oxadiazepine-7,9(8H)-dione] | 6210 nM | 
41 |  | CC1OC2(CCC3(CC2)NC(=O)C(c2cc(-c4ccc(Cl)cc4)ccc2Cl)=C3O)OC1C (stereo not drawn) [1-71, 11-(4,4′-dichlorobiphenyl-3-yl)-12-hydroxy-2,3-dimethyl-1,4-dioxa-9-azadispiro[4.2.4.2]tetradec-11-en-10-one] | 912 nM | 
42 |  | Cc1ccc(-c2ccc(Cl)cc2)cc1C1C(=O)N2C3CCC(C3)N2C1=O (stereo not drawn) [8-16, 2-(4′-chloro-4-methylbiphenyl-3-yl)tetrahydro-1H-5,8-methanopyrazolo[1,2-a]pyridazine-1,3(2H)-dione] | 593 nM | 
